Test results from ChEMBL document CHEMBL1201862, “PubChem BioAssay data set” (2004).
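Step 1: Grow cells in 96-well plates. Step 2: Expose to compound for 48 hours at 5 concentrations. Step 3: Interpolate endpoints linearly; if unreached, use highest concentration. GI50 marks 50% less growth.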 Activity calls are given as the source filed them. No stated cut-off is given here; in the data, active = GI50 up to about 1.1 µM and inactive = higher.

Legend:
Assay in all cases: DTP human tumour cell line panel, 48 h
SW-620 = system: SW-620
MDA-MB-435 = system: MDA-MB-435
OVCAR-5 = system: OVCAR-5
HCT-116 = system: HCT-116
A549 = system: A549
BT-549 = system: BT-549
SK-OV-3 = system: SK-OV-3
SK-MEL-28 = system: SK-MEL-28
NCI-H226 = system: NCI-H226
M14 = system: M14
UO-31 = system: UO-31
Hs-578T = system: Hs-578T
TK-10 = system: TK-10
KM12 = system: KM12
SK-MEL-5 = system: SK-MEL-5
SNB-19 = system: SNB-19
SN12C = system: SN12C
OVCAR-8 = system: OVCAR-8
RPMI-8226 = system: RPMI-8226
SK-MEL-2 = system: SK-MEL-2

Measured: GI50

CCn1c(=O)c2c3ccc(OC(C)=O)cc3[nH]c2c2ccc(OC(C)=O)cc21
inactive: SW-620 30.7 µM | MDA-MB-435 41 µM | OVCAR-5 > 100 µM | HCT-116 15.5 µM | A549 64.7 µM | BT-549 72.3 µM | SK-OV-3 44.3 µM | SK-MEL-28 49.2 µM | NCI-H226 24.8 µM | M14 45.3 µM | UO-31 44.1 µM | Hs-578T 34.5 µM | TK-10 51.5 µM | KM12 34.7 µM | SK-MEL-5 30.8 µM | SNB-19 50.5 µM | SN12C 32.7 µM | OVCAR-8 31.3 µM

O=C(Nc1ccccc1F)c1cc2ccc(O)cc2o/c1=N\c1cccc(C(F)(F)F)c1
inactive: RPMI-8226 2.05 µM | SW-620 3.08 µM | MDA-MB-435 3.51 µM | OVCAR-5 26.5 µM | HCT-116 2.85 µM | A549 3.18 µM | BT-549 2.67 µM | SK-OV-3 3.78 µM | SK-MEL-28 3.82 µM | M14 5.18 µM | UO-31 3.85 µM | Hs-578T 1.94 µM | KM12 3.71 µM | SK-MEL-5 1.94 µM | SK-MEL-2 4.36 µM | SNB-19 5.87 µM | OVCAR-8 2.18 µM

COc1ccc(-c2nc3cc(F)ccc3s2)cc1O
inactive: RPMI-8226 17.6 µM | SW-620 87.9 µM | MDA-MB-435 56.1 µM | OVCAR-5 48.6 µM | HCT-116 27.4 µM | A549 34.1 µM | BT-549 17.2 µM | SK-OV-3 29.8 µM | SK-MEL-28 75.7 µM | NCI-H226 23.8 µM | M14 26.5 µM | UO-31 30.8 µM | TK-10 16.2 µM | KM12 12.2 µM | SK-MEL-5 22.5 µM | SK-MEL-2 27.9 µM | SNB-19 61.7 µM | SN12C 84.3 µM | OVCAR-8 26.5 µM

Fc1cc(-c2ncc(Cl)cc2Cl)c2cccccc1-2
inactive: OVCAR-5 > 100 µM | HCT-116 > 100 µM | A549 > 100 µM | BT-549 > 100 µM | SK-OV-3 > 100 µM | NCI-H226 > 100 µM | M14 82.6 µM | UO-31 > 100 µM | Hs-578T > 100 µM | TK-10 > 100 µM | KM12 > 100 µM | SK-MEL-5 > 100 µM | SNB-19 > 100 µM | OVCAR-8 > 100 µM

CC1(C)CC(=O)c2c(N)n[nH]c2C1
inactive: RPMI-8226 > 100 µM | SW-620 > 100 µM | MDA-MB-435 > 100 µM | OVCAR-5 > 100 µM | HCT-116 > 100 µM | A549 > 100 µM | BT-549 > 100 µM | SK-MEL-28 > 100 µM | NCI-H226 > 100 µM | M14 > 100 µM | UO-31 > 100 µM | KM12 > 100 µM | SK-MEL-5 > 100 µM | SK-MEL-2 > 100 µM | SNB-19 > 100 µM | SN12C > 100 µM | OVCAR-8 > 100 µM

CCOc1ccc(N2C(=O)NC3(c4ccccc4)N(C)C(=O)N(C)C23c2ccccc2)cc1 (stereo unspecified)
inactive: RPMI-8226 57.1 µM | SW-620 > 100 µM | MDA-MB-435 > 100 µM | OVCAR-5 > 100 µM | HCT-116 78 µM | A549 56.8 µM | BT-549 83.9 µM | SK-OV-3 > 100 µM | SK-MEL-28 > 100 µM | NCI-H226 61 µM | M14 > 100 µM | UO-31 92.9 µM | KM12 55.3 µM | SK-MEL-5 68.9 µM | SK-MEL-2 > 100 µM | SNB-19 > 100 µM | SN12C > 100 µM | OVCAR-8 61.1 µM

CCCCCCCCOC(=O)C12Oc3ccc(-c4ccc5c(c4O)C(=O)C4=C(O)CC(C)C(O)C4(C(=O)OCCCCCCCC)O5)c(O)c3C(=O)C1=C(O)CC(C)C2O (stereo unspecified)
inactive: SW-620 6.85 µM | MDA-MB-435 9.86 µM | OVCAR-5 24 µM | HCT-116 7.11 µM | A549 4.79 µM | BT-549 9.59 µM | SK-OV-3 18.7 µM | SK-MEL-28 18.2 µM | NCI-H226 33.7 µM | M14 26.2 µM | UO-31 24.7 µM | Hs-578T 11.6 µM | TK-10 15.5 µM | KM12 10.8 µM | SK-MEL-5 14.7 µM | SK-MEL-2 7.87 µM | SNB-19 8.85 µM | SN12C 27.7 µM | OVCAR-8 9.46 µM

C=C(Cl)C(Cl)(CBr)CCCC(C)C (stereo unspecified)
inactive: RPMI-8226 2.92 µM | SW-620 40.1 µM | MDA-MB-435 37.5 µM | OVCAR-5 19.9 µM | HCT-116 6.47 µM | A549 21.4 µM | BT-549 > 85.9 µM | SK-OV-3 > 100 µM | SK-MEL-28 19.4 µM | NCI-H226 > 100 µM | M14 > 100 µM | UO-31 16.3 µM | Hs-578T 7.19 µM | TK-10 16.4 µM | KM12 11.8 µM | SK-MEL-5 > 100 µM | SNB-19 18.7 µM | SN12C > 100 µM | OVCAR-8 20.7 µM
